{"source": "ChEMBL document CHEMBL4680279", "about": "“Opportunities for Tapping into Three-Dimensional Chemical Space through a Quaternary Carbon” (J Med Chem, 2020)", "key": {"[1]": {"target": "Growth hormone secretagogue receptor type 1 (Rattus norvegicus, UniProt O08725)", "sequence (O08725 whole entry)": "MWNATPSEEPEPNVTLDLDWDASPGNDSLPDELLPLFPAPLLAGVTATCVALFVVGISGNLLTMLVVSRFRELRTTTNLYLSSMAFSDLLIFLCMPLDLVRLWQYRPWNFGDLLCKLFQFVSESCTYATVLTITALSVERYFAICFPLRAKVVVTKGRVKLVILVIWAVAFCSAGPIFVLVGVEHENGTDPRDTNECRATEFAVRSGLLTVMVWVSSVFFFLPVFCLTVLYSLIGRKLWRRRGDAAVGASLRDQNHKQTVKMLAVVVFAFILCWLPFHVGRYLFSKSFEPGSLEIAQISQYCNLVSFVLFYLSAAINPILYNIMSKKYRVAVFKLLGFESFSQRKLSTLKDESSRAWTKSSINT", "experiment": "Agonist activity at GHSR in Wistar rat pituitary gland cells assessed as induction of GH release by RIA", "format": "tissue-based, Pituitary gland cell"}, "[2]": {"test_system": "Aspergillus fumigatus", "experiment": "Antifungal activity against Aspergillus fumigatus incubated for 72 hrs", "format": "functional"}, "[3]": {"test_system": "Candida albicans", "experiment": "Antifungal activity against Candida albicans 124 incubated for 48 hrs", "format": "functional"}, "[4]": {"target": "Cholecystokinin(CCK) A/B (Homo sapiens) (UniProt P32239+P32238)", "sequence (P32238 whole entry, looked up)": "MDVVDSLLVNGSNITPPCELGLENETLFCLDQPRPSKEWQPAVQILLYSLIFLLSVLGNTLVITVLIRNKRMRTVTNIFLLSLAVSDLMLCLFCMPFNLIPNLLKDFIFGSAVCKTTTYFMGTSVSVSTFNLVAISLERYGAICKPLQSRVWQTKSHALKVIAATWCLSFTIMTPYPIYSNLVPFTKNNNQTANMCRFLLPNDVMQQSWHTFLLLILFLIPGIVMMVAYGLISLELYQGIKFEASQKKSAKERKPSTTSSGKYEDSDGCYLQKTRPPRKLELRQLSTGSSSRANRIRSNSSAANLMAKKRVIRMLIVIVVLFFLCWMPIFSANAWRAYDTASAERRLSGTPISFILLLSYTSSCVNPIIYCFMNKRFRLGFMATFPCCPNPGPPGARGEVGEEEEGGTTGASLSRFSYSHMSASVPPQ", "sequence (P32239 whole entry, looked up)": "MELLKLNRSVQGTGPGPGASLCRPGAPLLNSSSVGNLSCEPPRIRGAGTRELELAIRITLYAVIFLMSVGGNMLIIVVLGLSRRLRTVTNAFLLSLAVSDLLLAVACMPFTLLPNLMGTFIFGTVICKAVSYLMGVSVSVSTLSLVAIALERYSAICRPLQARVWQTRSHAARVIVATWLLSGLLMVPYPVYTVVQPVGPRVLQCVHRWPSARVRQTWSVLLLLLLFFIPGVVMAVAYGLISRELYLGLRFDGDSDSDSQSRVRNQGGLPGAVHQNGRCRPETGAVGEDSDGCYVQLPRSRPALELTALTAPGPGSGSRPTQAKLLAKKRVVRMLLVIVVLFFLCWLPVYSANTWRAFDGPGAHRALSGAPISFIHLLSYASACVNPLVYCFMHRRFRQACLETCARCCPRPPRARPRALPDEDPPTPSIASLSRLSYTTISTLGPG", "experiment": "Selectivity index, ratio of IC50 for human Cholecystokinin B receptor expressed in CHO-K1 cells to IC50 for human Cholecystokinin A receptor expressed in CHO-K1 cells", "format": "cell-based"}, "[5]": {"experiment": "Selectivity ratio of Ki for Displacement of N-[3H]ethyladenosin-5'-uronamide from adenosine receptor A2 in rat striatal membranes to Ki for Displacement of N6-[3H]cyclohexyladenosine from adenosine receptor A1 in guinea pig forebrain membranes", "format": "cell membranes"}, "[6]": {"experiment": "Displacement of N-[3H]ethyladenosin-5'-uronamide from adenosine receptor A2 in rat striatal membranes by liquid scintillation counting method", "format": "cell membranes, Striatum, Membrane"}}}
{"molecule": "CN1N=C2CCN(C(=O)[C@@H](COCc3ccccc3)NC(=O)C(C)(C)N)C[C@@]2(Cc2ccccc2)C1=O", "note": "[CAPROMORELIN]", "values": [{"measurement": "EC50", "setting": "[1]", "value": 3, "unit": "nM"}]}
{"molecule": "CN(Cc1ccc(C2(c3ccccc3)CC2)cc1)Cc1cccc2ccccc12", "values": [{"measurement": "MIC", "setting": "[2]", "value": 1.56, "unit": "µg/mL"}, {"measurement": "MIC", "setting": "[3]", "value": 3.13, "unit": "µg/mL"}]}
{"molecule": "O=C(NC(Cc1c[nH]c2ccccc12)C(=O)N1CCC2(CCc3ccccc32)CC1)NC1CN2CCC1CC2", "note": "(centres undefined) [SPIROPIPERIDINE]", "values": [{"measurement": "EC50", "setting": "[1]", "value": 50, "unit": "nM"}]}
{"molecule": "CC(C)N(C(=O)CN1C(=O)C(C)(CC(=O)Nc2ccccc2)C(=O)N(c2ccccc2)c2ccccc21)c1ccccc1", "note": "(centres undefined)", "values": [{"measurement": "Ratio IC50", "setting": "[4]", "value": 110}]}
{"molecule": "CCCn1c(=O)c2nc(C3C(C)(C)CCC3(C)C)[nH]c2n(CCC)c1=O", "values": [{"measurement": "Ratio Ki", "setting": "[5]", "value": "> 4500"}, {"measurement": "Ki", "setting": "[6]", "value": "> 100000", "unit": "nM"}]}
{"molecule": "CN(Cc1ccc(Cc2ccccc2)cc1)Cc1cccc2ccccc12", "values": [{"measurement": "MIC", "setting": "[2]", "value": "> 100", "unit": "µg/mL"}, {"measurement": "MIC", "setting": "[3]", "value": "> 100", "unit": "µg/mL"}]}
{"molecule": "CC(C)N(C(=O)CN1C(=O)C(CC(=O)Nc2ccccc2)C(=O)N(c2ccccc2)c2ccccc21)c1ccccc1", "note": "(centres undefined)", "values": [{"measurement": "Ratio IC50", "setting": "[4]", "value": 5}]}
{"molecule": "CN(Cc1ccc(C(C)(C)c2ccccc2)cc1)Cc1cccc2ccccc12", "values": [{"measurement": "MIC", "setting": "[2]", "value": 0.1, "unit": "µg/mL"}, {"measurement": "MIC", "setting": "[3]", "value": 1.56, "unit": "µg/mL"}]}
{"molecule": "CCCn1c(=O)c2[nH]c(C3CCCC3)nc2n(CCC)c1=O", "note": "[1,3-DIPROPYL-8-CYCLOPENTYLXANTHINE [DPCPX]]", "values": [{"measurement": "Ki", "setting": "[6]", "value": 590, "unit": "nM"}]}
{"molecule": "CC(C)N(C(=O)CN1C(=O)C(C)(NC(=O)Nc2ccccc2)C(=O)N(c2ccccc2)c2ccccc21)c1ccccc1", "note": "(centres undefined)", "values": [{"measurement": "Ratio IC50", "setting": "[4]", "value": 0.2}]}
